The values below come from patent US20220016118A1, “COMBINATION OF A MCL-1 INHIBITOR AND MIDOSTAURIN, USES AND PHARMACEUTICAL COMPOSITIONS THEREOF” (LES LABORATOIRES SERVIER, priority 2018, published 2022).

One data set has as its system MV4-11 FLT3-ITD. The data set can be described thus: Dynamic BH3 profiling (cytochrome C release). Type of data set: cell-based. The note with it: 4 hours after treatment with Midostaurin (100 nM). The protocol:
Cells were subjected to BH3 profiling assay 4 hours after treatment with Midostaurin (100 nM). Increase in cytochrome C release is a quantitative measure of mitochondrial apoptosis initiation.
BH3 profiling was performed in black 384-well plates according to A. Letai method (https://letailab.dana-farber.org/bh3-profiling.html). Briefly, cells ([…]) were seeded in 6-well plates in 5 mL of complete RPMI medium and exposed to Midostaurin and S63845 given alone or in combination. Control cells received DMSO. Cells were incubated for 6 hours, collected, washed twice in PBS and resuspended in MEB buffer (150 mM mannitol, 10 mM HEPES-KOH pH 7.5, 150 mM KCl, 1 mM EGTA, 1 mM EDTA, 0.1% BSA, 5 mM succinate) to a final density 1×10^6/mL. Cells (15 μL) were added to 384-well plate containing containing peptides % BH3 mimetics and 15 μL of 0.002% digitonin in MEB buffer. Cells were incubated for 1 hour in 25° C. and subsequently fixed in 10 μL of 4% formaldehyde in PBS for 10 minutes. To terminate the fixation, 10 μL of N2 buffer (1.7M Tris, 1.25M Glycine pH 9.1) was added and cells were left at room temperature for 5 minutes. […] Cytochrome C release was measured by flow cytometry.

The subject of the next data set is Molm13. Put plainly: Caspase-Glo 3/7 caspase3.7 activity, dose matrix, Molm13. The note with it: single agent, Molm13 (FLT3-ITD), 6 hours treatment, highest dose 3 uM. Format: cell-based. The protocol: (§1) Both compounds were dissolved in 100% DMSO (Sigma, Catalog number D2650) at concentrations of 10 mM and stored at −20° C. until use.
(§2) The cell line Molm13 used in this study was purchased from Leibniz-Institut DSMZ (ACC 554) and MV-4-11 from American Type Cell Collection (ATCC® CRL-9591). The cell lines were cultured at 37° C. in a 5% CO2 incubator, Molm13 in RPMI (Lonza, 12-702F) and MV-4-11 in IMDM (Hyclone, SH30228.01) media complemented with 10% fetal bovine serum (Seradigm, 1500-500). The cells were passaged twice a week and the medium was changed every 2 to 3 days.
(§3) Caspase3.7 activity was measured by the Caspase-Glo® 3/7 kit from Promega (G8092), 9000 cells/well were dispensed into clear-bottom 384-well black plates (Greiner, #781091) in triplicates with 30 μl/well growth media. […] Then 30 ul/well of the Caspase-Glo® 3/7 reagents was added to each well at the end and luminescence was recorded on an Envision plate reader (Perkin Elmer). Measured Luminescence is proportional to the amount of caspase activity present. […]
(§4) The Compound A and Compound B “dose matrix”, consisted of the following: both compounds were subjected to a 11 dose 1:3 serial dilution with the highest dose of 3 uM and down to no-compound control. […] The percent caspase3.7 activity was calculated using the following calculation: (I-control/compound treated)×100. […]

For another data set, the system named is solid tumors. The note with it: single agent, Phase I trial; cited from earlier work.
A further data set has as its system MV-4-11 cells. The data set can be described thus: Western blot of FLT3-mediated signaling and Bcl-2 family proteins. The note with it: 6 hours. Type of data set: cell-based. The protocol:
B. Western blot analysis of FLT3-mediated signaling pathways and expression of Bcl-2 family proteins in MV-4-11 cells treated for 6 hours with Midostaurin. S63845 alone or in combination. De-phosphorylation of FLT3-ITD lead to inactivation of STAT5 and MAPK and was accompanied by significant downregulation of MAPK-mediated phosphorylation of Mcl-1 at Thr163, site required for Mcl-1 stability. Consequently, Midostaurin reduced level of Mcl-1.
Cells (3×10^6/well) were seeded in 6-well plates in 5 mL of complete RPMI medium and exposed to Midostaurin and S63845 given alone or in combination. Control cells received DMSO. Cells were incubated for 6 hours and then collected, washed twice in PBS and lysed in RIPA buffer (ThermoFisher Scientific) supplemented with 1× Protease and Phosphatase Inhibitor cocktail (ThermoFisher Scientific). Lysates were kept on ice for 20 minutes with vortexing every 5 minutes, then briefly sonicated and centrifuged at 13500 rpm for 15 minutes. Supernatant was collected and protein content was measured using […]. Cell lysates (30-50 μg protein per well) were resolved by electrophoresis on 4%-20% gradient precast sodium dodecyl sulfate-polyacrylamide gels (Bio-Rad, Hercules, Calif.) and transferred to PVDF membrane (Bio-Rad). […]
In general terms: In western blotting, separated proteins are transferred to a membrane and probed.

The next data set deals with AML with FLT3 mutation. The note with it: added to cytarabine and daunorubicin induction and cytarabine consolidation; cited from earlier work.
For a further data set, the system named is MV-4-11. The data set can be described thus: Caspase-Glo 3/7 caspase3.7 activity, dose matrix, MV-4-11. Format: cell-based. The note with it: single agent, MV-4-11 (FLT3-ITD), 6 hours treatment, highest dose 3 uM. The protocol:
as §1, §2, §3, §4

As to `CO[C@]1(O)[C@H](N(C)C(=O)c2ccccc2)C[C@H]2O[C@]1(C)n1c3ccccc3c3c4c(c5c6ccccc6n2c5c31)C(=O)NC4` [Compound A, 4′-N-benzoylstaurosporine], the “mitochondrial priming to Mcl-1 inhibitor S63845 and Bim peptide” value in the data set on MV4-11 FLT3-ITD is “increased”. For the same compound, in the data set with Molm13, the “induction of caspase activity, maximum increase” value (“induction … maximum increase” below) stood at 33%. For the same compound, in the data set with solid tumors, the efficacy entry was “limited efficacy” and the toxicity entry is “low toxicity”. For the same compound, in the data set on MV-4-11 cells, the “level of pro-apoptotic Bim” value is “increased”. Also, the “level of Mcl-1” value with MV-4-11 cells (MV-4-11 cells) is recorded as “reduced”. Moreover, the overall survival entry in the data set with AML with FLT3 mutation is “increased overall survival”. Further, the “induction … maximum increase” value in the data set on MV-4-11 is 24%.

On to `COc1ccccc1-c1nccc(COc2ccccc2C[C@@H](Oc2ncnc3sc(-c4ccc(F)cc4)c(-c4ccc(OCCN5CCN(C)CC5)c(Cl)c4C)c23)C(=O)O)n1` [Compound B, (2R)-2-{[(5Sa)-5-{3-chloro-2-methyl-4-[2-(4-methylpiperazin-1-yl)ethoxy]phenyl}-6-(4-fluorophenyl)thieno[2,3-d]pyrimidin-4-yl]oxy}-3-(2-{[2-(2-methoxyphenyl)pyrimidin-4-yl]methoxy}phenyl)propanoic acid], for which the “induction … maximum increase” value in the data set on Molm13 was determined as 87%; in the data set on MV-4-11 it was 89%.
